The values that follow come from US20250388569A1, “HETEROCYCLIC COMPOUND FOR INHIBITING AND/OR INDUCING DEGRADATION OF KRAS PROTEIN” (ASTELLAS PHARMA INC., priority 2022, published 2025).

Assay [1] addresses T1, KRAS G12D (Homo sapiens, UniProt P01116, G12D).
T1 construct: host or cells: AsPC-1 human pancreatic cancer cells
Kind of assay: Evaluation of KRAS degradation activity on AsPC-1 by Cell ELISA (Test Example 1). It counts as cell-based. The following applies: degradation rate of KRAS G12D at 1 μM in AsPC-1 cells, cultured overnight, corrected with β-actin. The procedure: Test Example 1: Evaluation of KRAS Degradation Activity on Human G12D Mutant KRAS-Positive Pancreatic Cancer Line AsPC-1 (CRL-1682; ATCC)
The KRAS degradation activity of test compounds was evaluated by measuring the expression levels of KRAS G12D by Cell ELISA.
AsPC-1 cells were seeded at 20 μL per well on 384-well plates (from Greiner bio-one) to give 2.0×10^4 cells per well. As for the cell culture conditions, RPMI 1640 (from Sigma-Aldrich) medium containing 10% fetal bovine serum (from Cytiva) was used in the presence of 5% CO2 at 37° C.
The next day, the test compounds (10 points having final concentrations in the range of 10 μM to 0.3 nM) and DMSO (from FUJIFILM Wako Pure Chemical Corporation), which was the solvent for the test compounds, as a negative control were diluted 500-fold with a fresh medium and were added at 20 μL per well. The cells were cultured overnight.
The next day, the culture supernatant was removed, and 4% paraformaldehyde phosphate buffer (from FUJIFILM Wako Pure Chemical Corporation) was added at 20 μL per well. The plates were allowed to stand for 30 minutes at room temperature to thus immobilize the cells. Then, the supernatant was removed, and 0.1% Triton X-100 (from Amersham Biosciences)-containing Phosphate buffered saline (PBS; from FUJIFILM Wako Pure Chemical Corporation) was added at 20 μL per well. After allowing to stand for 10 minutes at room temperature, the supernatant was removed. PBS was added at 25 μL per well, and the supernatant was removed to thus wash each well. The washing was performed twice in total. Next, the supernatant was removed, and 0.5% sodium dodecyl sulfate (SDS; from Invitrogen)-containing PBS was added at 20 μL per well. After allowing to stand at room temperature for 10 minutes, the supernatant was removed by a centrifugal operation (using a centrifugal dehydrator machine, the supernatant was removed by the same method hereinafter). PBS was added at 25 μL per well, and the supernatant was removed to thus wash each well. The washing was performed twice in total. The supernatant was removed, and blocking solution (Intercept Blocking Buffer; from Li-COR Biosciences) was added at 20 μL per well. After allowing to stand for 30 minutes at room temperature, the supernatant was removed, and a solution obtained by diluting anti-β-actin antibody (Anti-beta Actin antibody [mAbcam 8226]-Loading Control; from abcam) 1,000-fold with blocking solution and a solution obtained by diluting anti-Ras (G12D Mutant Specific) antibody (Ras (G12D Mutant Specific) (D8H7) Rabbit mAb #14429; from Cell Signaling Technology) and anti-β-actin antibody (from abcam) 1,000-fold with blocking solution were respectively added to positive control wells and the other wells at 15 μL per well as a primary antibody. The plates were allowed to stand overnight at 4° C.
The next day, the supernatant was removed. PBS was added at 25 μL per well, and the supernatant was removed to thus wash each well. The washing was performed twice in total. The supernatant was removed, and a solution obtained by diluting Donkey anti-Mouse IgG H&L (IRDye 680RD) (from Li-COR Biosciences) and Goat anti-Rabbit IgG H&L (IRDye 800CW) (from Li-COR Biosciences) 1,000-fold with blocking solution was added at 15 μL per well as a secondary antibody. After allowing to stand for 1 hour at room temperature, the supernatant was removed. PBS was added at 25 μL per well, and the supernatant was removed to thus wash each well. The washing was performed twice in total. After removing the supernatant, the plates were dried with air at room temperature for 2 hours or more, and the 700 nm and 800 nm fluorescent signals were measured with Aerius (from Li-COR Biosciences). […]
On the technique in general: ELISA stands for enzyme-linked immunosorbent assay.

Assay [2] has as its system human G12D mutant KRAS-positive pancreatic cancer line AsPC-1. As to the kind of experiment: Non-anchorage-dependent cell growth inhibitory effect, spheroid 3D cell culture (Test Example 2). The following applies: AsPC-1 spheroid 3D culture, 6 days, CellTiter Glo 2.0. The format is cell-based. The method, then:
Test Example 2: Evaluation of Non-Anchorage-Dependent Cell Growth Inhibitory Effect on Human G12D Mutant KRAS-Positive Pancreatic Cancer Line AsPC-1
The non-anchorage-dependent cell growth inhibitory effect of test compounds was evaluated by spheroid 3D cell culture.
AsPC-1 cells were seeded on low-cell-adhesive round bottom 384-well plates (PrimeSurface: from Sumitomo Bakelite) at 36 μL/well to give 5×10^2 cells per well. As for the cell culture conditions, RPMI 1640 medium containing 10% fetal bovine serum was used in the presence of 5% CO2 at 37° C.
The next day, the test compounds (6 points having final concentrations in the range of 10 μM to 30 nM) and DMSO, which was the solvent for the test compounds, as a negative control were diluted 100-fold with a fresh medium and were added at 4 μL per well. After culturing in the presence of 5% CO2 at 37° C. for 6 days, CellTiter Glo 2.0 (from Promega) was added at 20 μL per well. After stirring with a plate mixer (from FINEPCR) at normal temperature for 1 hour, the luminescent signals were measured with ARVO X3 (from PerkinElmer).
With the signaling value in treatment with DMSO taken as 100% and with the signaling value in the medium alone without cells taken as 0%, the 50% inhibitory concentration values (IC50) were calculated by Sigmoid-Emax nonlinear regression analysis.
For orientation: ATP-based viability assays read luminescence as a measure of living cells.

Consider `Cc1c(F)cc2[nH]ncc2c1-c1c(C2CC2)cc2c(N3C[C@@H]4C[C@H]3CN4)nc(OC3CCOCC3)nc2c1OCc1ccc(C(=O)N2CCN(C(=O)c3ccc4c(c3)CN(C(=O)c3cc(C(C)C)c(O)cc3O)C4)C[C@@H]2C)cc1` (atropisomer, axis not shown) [Example 2], for which the “% degradation” value in assay [1] was found to be 44%. The compound further registered a half-maximal inhibitory concentration (IC50) in assay [2] (Homo sapiens, ASPC1, 144 h) of 1.9 µM.
For the compound `Cc1c(F)cc2[nH]ncc2c1-c1c(C2CC2)cc2c(N3C[C@@H]4C[C@H]3CN4)nc(OC3CCOCC3)nc2c1OCc1ccc(C(=O)N2CCN(C(=O)c3ccc4c(c3)CN(C(=O)c3cc(C(C)C)c(O)cc3O)C4)C[C@H]2C)cc1` (atropisomer, axis not shown) [Example 3], in assay [1], the “% degradation” value stood at 46%. The compound also came in with a 50% inhibitory concentration (IC50) in assay [2] (Homo sapiens, ASPC1, 144 h) of 2.8 µM.
Regarding `Cc1c(F)cc2[nH]ncc2c1-c1c(C2CC2)cc2c(N3C[C@@H]4C[C@H]3CN4)nc(OC3CCOCC3)nc2c1OCc1ccc(C(=O)N2C[C@H]3CN(Cc4ccc5c(c4)CN(C(=O)c4cc(C(C)C)c(O)cc4O)C5)C[C@H]3C2)cc1` (atropisomer, axis not shown) [Example 4], in assay [1], the “% degradation” value turned out to be 15%. This compound had an IC50 in assay [2] (Homo sapiens, ASPC1, 144 h) of 5.1 µM.
Take `Cc1c(F)cc2[nH]ncc2c1-c1c(C2CC2)cc2c(N3C[C@@H]4C[C@H]3CN4)nc(OC3CCOCC3)nc2c1OCc1ccc(C(=O)N2CCN(Cc3ccc4c(c3)CN(C(=O)c3cc(C(C)C)c(O)cc3O)C4)CC2)cc1` (atropisomer, axis not shown) [Example 6]: in assay [1], the “% degradation” value was 25%. The IC50 in assay [2] (Homo sapiens, ASPC1, 144 h) was determined as 3.6 µM.
For `Cc1c(F)cc2[nH]ncc2c1-c1c(C2CC2)cc2c(N3C[C@@H]4C[C@H]3CN4)nc(OC3CCOCC3)nc2c1OCc1ccc(C(=O)N2CCCN(Cc3ccc4c(c3)CN(C(=O)c3cc(C(C)C)c(O)cc3O)C4)CC2)cc1` (atropisomer, axis not shown) [Example 7], in assay [1], the “% degradation” value worked out at 20%.
For the compound `Cc1c(F)cc2[nH]ncc2c1-c1c(C2CC2)cc2c(N3C[C@@H]4C[C@H]3CN4)nc(OC3CCOCC3)nc2c1OCc1ccc(C(=O)N2CCC3(CC2)CN(Cc2ccc4c(c2)CN(C(=O)c2cc(C(C)C)c(O)cc2O)C4)C3)cc1` (atropisomer, axis not shown) [Example 10], in assay [1], the “% degradation” value is listed as 37%. In addition, the 50% inhibitory concentration (IC50) in assay [2] (Homo sapiens, ASPC1, 144 h) worked out at 3.7 µM.
`Cc1c(F)cc2[nH]ncc2c1-c1c(C2CC2)cc2c(N3C[C@@H]4C[C@H]3CN4)nc(OC3CCOCC3)nc2c1OCc1ccc(C(=O)N2CCN(C3CCN(Cc4ccc5c(c4)CN(C(=O)c4cc(C(C)C)c(O)cc4O)C5)CC3)CC2)cc1` (atropisomer, axis not shown) [Example 11]: in assay [1], the “% degradation” value is recorded as 51%. In addition, half-maximal inhibition in assay [2] (Homo sapiens, ASPC1, 144 h) (IC50) required 2.9 µM.
As to `Cc1c(F)cc2[nH]ncc2c1-c1c(C2CC2)cc2c(N3C[C@@H]4C[C@H]3CN4)nc(OC3CCOCC3)nc2c1OCc1ccc(C(=O)N2CCN(CC3CN(Cc4ccc5c(c4)CN(C(=O)c4cc(C(C)C)c(O)cc4O)C5)C3)CC2)cc1` (atropisomer, axis not shown) [Example 12], in assay [1], the “% degradation” value amounted to 20%. Also, the IC50 in assay [2] (Homo sapiens, ASPC1, 144 h) amounted to 3.5 µM.
In the case of `CO[C@@H](O)COc1nc(N(C)[C@H]2CCNC2)c2cc(C3CC3)c(-c3c(C)c(F)cc4[nH]ncc34)c(OCc3ccc(C(=O)N4CCN(C(=O)c5ccc6c(c5)CN(C(=O)c5cc(C(C)C)c(O)cc5O)C6)C[C@@H]4C)cc3)c2n1` (atropisomer, axis not shown) [Example 13], the “% degradation” value in assay [1] was 57%. The same compound gave a concentration for half-maximal inhibition (IC50) in assay [2] (Homo sapiens, ASPC1, 144 h) of 2 µM.
In the case of `Cc1c(F)cc2[nH]ncc2c1-c1c(C2CC2)cc2c(N3C[C@@H]4C[C@H]3CN4)nc(OC3CCOCC3)nc2c1OCc1ccc(CN2CCN(C(=O)c3ccc4c(c3)CN(C(=O)c3cc(C(C)C)c(O)cc3O)C4)CC2)cc1` (atropisomer, axis not shown) [Example 15], the “% degradation” value in assay [1] is listed as 17%. The half-inhibitory concentration (IC50) in assay [2] (Homo sapiens, ASPC1, 144 h) came out at 3.9 µM.
Turning to `Cc1c(F)cc2[nH]ncc2c1-c1c(C2CC2)cc2c(N3C[C@@H]4C[C@H]3CN4)nc(OC3CCOCC3)nc2c1OCc1ccc(C(=O)N2CCN(CCCOc3ncc4c(n3)CCN(C(=O)c3cc(C(C)C)c(O)cc3O)C4)CC2)cc1` (atropisomer, axis not shown) [Example 19], the IC50 in assay [2] (Homo sapiens, ASPC1, 144 h) turned out to be 2.3 µM.
For the compound `Cc1c(F)cc2[nH]ncc2c1-c1c(C2CC2)cc2c(N3C[C@@H]4C[C@H]3CN4)nc(OC3CCOCC3)nc2c1OCc1ccc(C(=O)N2CCN(C(=O)c3ccc4c(c3)CN(C(=O)c3cc(C(C)C)c(O)cc3O)C4)CC2)cc1` (atropisomer, axis not shown; (M)) [Example 1, [5-(4-{4-[({(7M)-6-cyclopropyl-4-[(1S,4S)-2,5-diazabicyclo[2.2.1]heptan-2-yl]-7-(6-fluoro-5-methyl-1H-indazol-4-yl)-2-[(oxan-4-yl)oxy]quinazolin-8-yl}oxy)methyl]benzoyl)piperazine-1-carbonyl)-1,3-dihydro-2H-isoindol-2-yl][2,4-dihydroxy-5-(propan-2-yl)phenyl]methanone], the “% degradation” value in assay [1] is given as 43%. In assay [2] (Homo sapiens, ASPC1, 144 h), this compound gave an IC50 of 3.3 µM.
In the case of `Cc1c(F)cc2[nH]ncc2c1-c1c(C2CC2)cc2c(N3C[C@@H]4C[C@H]3CN4)nc(OC3CCOCC3)nc2c1OCc1ccc(C(=O)N2C3CCC2CN(Cc2ccc4c(c2)CN(C(=O)c2cc(C(C)C)c(O)cc2O)C4)C3)cc1` [Example 9], in assay [2] (Homo sapiens, ASPC1, 144 h), half-maximal inhibition (IC50) was put at 3.4 µM. This lies in the single-digit micromolar range.
As to `CO[C@@H](C)COc1cc(O[C@H]2CCNC2)c2cc(C3CC3)c(-c3c(C)c(F)cc4[nH]ncc34)c(OCc3ccc(C(=O)N4CCN(C(=O)c5ccc6c(c5)CN(C(=O)c5cc(C(C)C)c(O)cc5O)C6)C[C@@H]4C)cc3)c2n1` [Example 16], the “% degradation” value in assay [1] was found to be 30%.
In the case of `Cc1c(F)cc2[nH]ncc2c1-c1c(C2CC2)cc2c(N3C[C@@H]4C[C@H]3CN4)nc(OC3CCOCC3)nc2c1OCc1ccc(C(=O)N2CCN(C(C)C(=O)c3ccc4c(c3)CN(C(=O)c3cc(C(C)C)c(O)cc3O)C4)CC2)cc1` (stereo partly shown) [Example 18], in assay [1], the “% degradation” value is reported as 20%. Also, in assay [2] (Homo sapiens, ASPC1, 144 h), the half-inhibitory concentration (IC50) came out at 7.4 µM.
Consider “{4-[({(7M)-6-cyclopropyl-4-[(1S,4S)-2,5-diazabicyclo[2.2.1]heptan-2-yl]-7-(6-fluoro-5-methyl-1H-indazol-4-yl)-2-[(oxan-4-yl)oxy]quinazolin-8-yl}oxy)methyl]phenyl) {4-[(4-{3-[2,4-dihydroxy-5-(propan-2-yl)phenyl]-5-hydroxy-4H-1,2,4-triazol-4-yl)phenyl)methyl]piperazin-1-yl}methanone [Example 5]”, for which the “% degradation” value in assay [1] came out at 46%. The compound further gave an IC50 in assay [2] of 2.2 µM.

One may read the IC50 as the concentration at which inhibition is half-maximal. A low value points to higher potency.
